Earlier results on three molecules are cited in publication PMC8725427 (Cellulose (London, England), 2022).

As usually defined, the IC50 is the concentration that inhibits the measured activity by half. As usually defined, the EC50 is the midpoint of the concentration-response curve.

A value given as a limit tells only on which side of the number the result lay.

One data set has as its system chikungunya virus. The settings on record: read-out: IC50 for chikungunya virus; ref von Rhein et al. [2016].
The subject of data set [1] is vesicular stomatitis virus. The settings on record: read-out: IC50 for vesicular stomatitis virus.
Data set [2] concerns transmissible gastroenteritis virus. The settings on record: read-out: IC50 for transmissible gastroenteritis virus; ref Li et al. [2020].
Another data set deals with HIV-1 integrase. The settings on record: read-out: IC50 to inhibit the HIV-1 integrase; ref Mazumder et al. [1995].
For data set [3] the following is noted: carboxymethyl cellulose 2% (w/v) in PBS medium; ref Gunathilake et al. [2020b].
The subject of the next data set is influenza A virus. The settings on record: read-out: IC50 for influenza A virus; ref Richart et al. [2018].
The next data set has as its system healthy organs. To be noted: doses as high as 8 g/day; ref Almosa et al. [2020].
For the next data set, the system named is influenza A virus (IAV). To be noted: ref Chen et al. [2010].
Another data set concerns SARS-CoV-1. The settings on record: read-out: EC50 for SARS-CoV-1 replication inhibition.
The conditions of data set [4]: in vitro, over a period concerned; ref Vedula et al. ([2016]).
For data set [5] the following is noted: from nanoliposomal carrier, simulated lung fluid; ref Vartak et al. ([2021]).

Consider `COc1cc(/C=C/C(=O)CC(=O)/C=C/c2ccc(O)c(OC)c2)ccc1O` [curcumin], for which the half-maximal inhibitory concentration (IC50) was 10.8 µM with chikungunya virus; 4.5 µM in data set [1]; 8.6 µM in [2]; 40 µM at HIV-1 integrase; approximately 0.2 µM with influenza A virus. In addition, the “Curcumin solubility in carboxymethyl cellulose medium” value in data set [3] was 147 ± 5.66 µg/mL. Further, the “Lethal effect on healthy organs” value in the data set with healthy organs is listed as “no lethal effect”. Moreover, the “Effective dose against influenza A virus (IAV)” value in the data set on influenza A virus (IAV) is recorded as ~ 10 µM. The EC50 in the data set with SARS-CoV-1 is more than 10 µM.

In the case of `Nc1nc2c(ncn2COCCO)c(=O)[nH]1` [ACV, acyclovir], the “Percentage of drug release” value in [4] is approximately 5%.

Take `CCC(CC)COC(=O)[C@H](C)N[P@](=O)(OC[C@H]1O[C@@](C#N)(c2ccc3c(N)ncnn23)[C@H](O)[C@@H]1O)Oc1ccccc1` [Remdesivir, remdesivir]: in data set [5], the “Time to complete drug release” value is on record as not above 50 h.
